# According to patent EP1763300B1 (priority 2004, dated 2006):
# Legend:
# Format in all cases: physicochemical
# [1] = Solubility in distilled water; conditions: no polymer, read-out: Löslichkeit in destilliertem Wasser
# Source text: Verschiedene schlecht wasserlösliche Substanzen wurden eingesetzt, um die Eignung der erfindungsgemäßen Polymere als Lösungsvermittler zu testen. Tabelle 1
# [2] = Solubilisation with polymer of Herstellungsbeispiel 2 by Verfahren 1 (solid solution), HPLC-UV; conditions: buffer with polymer, pH 6, 1440 min
# Experimental: 0,5 g eines Polymers und 0,1 g einer ausgewählten Substanz wurden in DMF (ca. 20 ml) gelöst. Das Gemisch wurde gerührt und DMF wurde vollständig evaporiert, so daß eine […] der organischen Moleküle in dem Polymer erhalten wurde. […] […] Nach der Filtration wurde die Lösung mittels HPLC analysiert (Detektor UV) und die Konzentration der Substanzen bestimmt.
# [3] = Solubilisation with polymer of Herstellungsbeispiel 1 by Verfahren 1 (solid solution), HPLC-UV; conditions: buffer with polymer, pH 6, 1440 min
SMILES,solubility [1],in Gegenwart von Polymer [2],Löslichkeit in Gegenwart von Polymer [3]
CCOC(=O)/C(Cl)=C/c1cc(N2C(=O)C3=C(CCCC3)C2=O)ccc1Cl [Cinidon-Ethyl],0.057 µg/mL,57 mg/L,"0,5 mg/l"
CC1(C)CCC(Cc2ccc(Cl)cc2)C1(O)Cn1cncn1 (centres unmarked) [Metconazol],15 µg/mL,–,–
"CCCCC(CC)COC(=O)c1ccc(Nc2nc(Nc3ccc(C(=O)OCC(CC)CCCC)cc3)nc(Nc3ccc(C(=O)OCC(CC)CCCC)cc3)n2)cc1 (centres unmarked) [Uvinul T150®, Octyltriazon]",0.007 µg/mL,79 mg/L,"2,3 mg/l"
COC(=O)N(OC)c1ccccc1COc1ccn(-c2ccc(Cl)cc2)n1 [Pyraclostrobin],2.4 µg/mL,–,–
CN1C(C(=O)Nc2ccccn2)=C(O)c2ccccc2S1(=O)=O [Piroxicam],23 µg/mL,167 mg/L,92 mg/L
